Experimental findings from ChEMBL document CHEMBL4184097, “Design, synthesis, and evaluation of novel inhibitors for wild-type human serine racemase” (Bioorg Med Chem Lett, 2018) are described below.

Usually IC50 stands for the concentration at which inhibition is half-maximal.

Experiment [1] has as its target T1, Serine racemase (Homo sapiens) (UniProt Q9GZT4).
T1 sequence (whole entry): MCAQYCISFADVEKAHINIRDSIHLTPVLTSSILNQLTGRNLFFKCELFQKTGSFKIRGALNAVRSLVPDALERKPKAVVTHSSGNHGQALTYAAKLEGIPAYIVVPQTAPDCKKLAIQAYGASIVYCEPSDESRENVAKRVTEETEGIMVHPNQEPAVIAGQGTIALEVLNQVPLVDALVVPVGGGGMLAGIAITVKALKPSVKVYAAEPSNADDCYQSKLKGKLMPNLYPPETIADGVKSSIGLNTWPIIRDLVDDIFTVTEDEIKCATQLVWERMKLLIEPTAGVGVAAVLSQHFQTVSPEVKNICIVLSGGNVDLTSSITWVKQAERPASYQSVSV
Kind of experiment: Inhibition of wild-type serine racemase (unknown origin) assessed as residual activity by measuring D-serine level at 1 mM using […] as substrate and PLP as co-factor pretreated for 30 mins followed by substrate and co-factor addition measured after 30 mins relative to control.

A further experiment concerns the target T2, Serine racemase (Homo sapiens, UniProt Q9GZT4).
T2 sequence (Q9GZT4 whole entry): T1 sequence (whole entry)
Kind of experiment: Inhibition of wild-type serine racemase (unknown origin) assessed as residual activity by measuring D-serine level using […] as substrate and PLP as co-factor pretreated for 30 mins followed by substrate and co-factor addition measured after 30 mins.

In the case of `CC(=O)Nc1ccc(NC(=O)C(C)NC(=O)CCSc2ccccc2Cl)cc1` (centres undefined), the Activity in experiment [1] was 52%. On to `COc1ccccc1SCCC(=O)OCC(=O)Nc1ccc(NC(C)=O)cc1`, for which the Activity in experiment [1] was determined as 36%. Moreover, the IC50 at Serine racemase amounted to 836 µM.

Regarding `COc1ccccc1SCCC(=O)NCC(=O)Nc1ccc(NC(C)=O)cc1`, the Activity in experiment [1] came out at 100%. On the same count and under the same terms, for `CCc1ccccc1NC(=O)C(C)OC(=O)CCSc1ccccc1Cl` (centres undefined) the value was 91%; for `CC(=O)Nc1ccc(NC(=O)COC(=O)CCOc2ccccc2F)cc1`, 88%; for `CC(=O)Nc1ccc(NC(=O)C(C)OC(=O)CCSc2ccccc2Cl)cc1` (centres undefined), 49%. The same measure, in the same setting: for `CC(=O)Nc1ccc(NC(=O)COC(=O)CCSc2cccc(Cl)c2)cc1` the value was 100%.

For `CC(=O)Nc1ccc(NC(=O)COC(=O)CCSc2ccccc2F)cc1`, the Activity in experiment [1] is 55%. Turning to `CC(OC(=O)CCSc1ccccc1Cl)C(=O)Nc1ccccc1` (centres undefined), in experiment [1], the Activity was 91%. On the same count and under the same terms, for `CC(=O)Nc1ccc(NC(=O)CNC(=O)CCSc2ccccc2Cl)cc1` the value was 100%. The same measure, in the same setting: with `COc1ccccc1CCCC(=O)OCC(=O)Nc1ccc(NC(C)=O)cc1` the figure was 76%. Take `CC(=O)Nc1ccc(NC(=O)COC(=O)CCSc2ccccc2)cc1`: in experiment [1], the Activity was 72%.

On to `COc1ccc(SCCC(=O)OCC(=O)Nc2ccc(NC(C)=O)cc2)cc1`, for which, in experiment [1], the Activity was determined as 65%. The same measure, in the same setting: with `CC(=O)Nc1ccc(NC(=O)COC(=O)CCSc2ccccc2Cl)cc1` the figure was 84%. Turning to `COc1ccccc1SCCC(=O)NC(C)C(=O)Nc1ccc(NC(C)=O)cc1` (centres undefined), the Activity in experiment [1] came to 92%. Same read-out and setting: with `COc1cccc(SCCC(=O)OCC(=O)Nc2ccc(NC(C)=O)cc2)c1` the figure was 61%; with `CC(=O)c1ccc(NC(=O)NNC(=O)Cc2ccc(Cl)c(Cl)c2)cc1`, 56%; with `COc1ccccc1CCCC(=O)CCC(=O)Nc1ccc(NC(C)=O)cc1`, 100%.
